Results taken from patent publication US6656931B2, “Vasopressin antagonist and diuretic combination” (Wyeth Holdings Corporation, priority 1999, dated 2003).
Read-outs that look alike come from different tables or passages of the source.

Legend:
[1] = tested on: renal function in anesthetized rats; conditions: for Na+ excretion / free water clearance / urine flow rate / urine osmolality: anesthetized rats; for glomerular filtration rate (GFR): rat, in vivo
Method: NaCl reabsorption in the thick ascending limb of the Loop of Henle (TALH) creates free water that is reabsorbed in the collecting duct in the presence of vasopressin. […] Either V (3 mg/kg), F (5 mg/kg), both V and F (V/F) or the vehicles were administered intraduodenally.

[2] = Human single dose crossover drug interaction study, pharmacokinetics; format: in vivo
Method: (§1) The study lasted approximately 30 days, and included a pre-enrollment evaluation of up to 2 weeks before dose administration, and three 2-day (2-night) confinement periods. The doses were separated by at least a 1 week interval. The clinical portion of the study was completed in approximately 2 months.
(§2) The VPA-985 suspension (25 mg and 50 mg powder reconstituted) was administered in 150 mL of Sprite® brand lemon-lime soda (a product of The Coca-Cola Company) followed by 100 mL of room-temperature water (250 mL of fluid total).
(§3) Areas under concentration-time curves(AUCT) (AUC) and AUC truncated at the last observed concentration (CT)AUCT) were determined by using the linear/log trapezoidal method. Statistical comparisons were made using by an analysis of variance (ANOVA). Confidence limits (90%) for pharmacokinetic parameters were constructed on a log scale using the two one-sided tests procedure. An interaction was judged to be significant if a 35% difference was detected between either single agent and the two drugs administered concomitantly.

[3] = tested on: healthy men; assay: Human single dose crossover drug interaction study, pharmacodynamics (urine flow, electrolytes); format: in vivo; conditions: for mean urine volume: 0 to 4 h interval, single oral doses VPA-985 75 mg; for mean urine volume / peak urine flow: furosemide 40 mg, or both; for peak urine flow: single oral doses: VPA-985 75 mg
Method: as §1, §2, §3

[4] = after intraduodenal administration (V 3 mg/kg, F 5 mg/kg)
[5] = baseline, before compound administration
[6] = VPA-985 75 mg administered with furosemide 40 mg
[7] = after coadministration with VPA-985 75 mg

SMILES: Cc1ccc(F)cc1C(=O)Nc1ccc(C(=O)N2Cc3cccn3Cc3ccccc32)c(Cl)c1 [VPA-985, N-[4-(5H-pyrrolo[2,1-c][1,4]benzodiazepin-10(11H)ylcarbonyl)-3-chlorophenyl]-5-fluoro-2-methyl-benzamide]
- Na+ excretion [1, 4]: 0.67±0.34 μEq/min
- free water clearance [1, 4]: -6.96 ± 5.17 µL/min
- urine flow rate [1, 4]: 19.51 ± 3.80 µL/min
- urine osmolality [1, 4]: 571±145 mOsm/kg
- Na+ excretion [1, 5]: 0.10±0.02 μEq/min
- free water clearance [1, 5]: -17.31 ± 1.84 µL/min
- urine flow rate [1, 5]: 5.26 ± 1.13 µL/min
- urine osmolality [1, 5]: 1456±166 mOsm/kg
- glomerular filtration rate (GFR) [1]: 2.04 ± 0.15 mL/min
- AUCs of VPA-985, compared to VPA-985 alone [2, 6]: no differences
- Cmax of VPA-985, compared to VPA-985 alone [2, 6]: no differences
- AUC ([2]; male, human, in vivo, single oral dose VPA-985 75-mg suspension alone, healthy men): 968 ng·h/mL
- Cmax ([2]; male, human, in vivo, single oral dose VPA-985 75-mg suspension alone, healthy men, read-out: mean peak concentration (Cmax) of VPA-985): 617 ng/mL
- Tmax ([2]; male, human, in vivo, single oral dose VPA-985 75-mg suspension alone, healthy men, read-out: mean time of peak concentration (tmax) of VPA-985): < 1 h
- mean urine volume [3]: 1157 mL
- increase in mean serum sodium ([3]; 0 to 4 hours after the dose): 2 mmol/L
- 0 to 4 h urinary excretion of sodium, potassium, chloride and magnesium ([3]; VPA-985 alone compared with VPA-985 and furosemide administered concomitantly): significantly less
- tmax of peak effect in urine flow ([3]; after administration of single doses, healthy men): approximately 1.5 h
- effect on serum potassium ([3]; single oral dose VPA-985 75 mg alone): did not alter
- peak urine flow ([3]; healthy men): 8.4 mL/min

SMILES: NS(=O)(=O)c1cc(C(=O)O)c(NCc2ccco2)cc1Cl [furosemide, reference compound]
- urine flow rate [1, 4]: 17.02 ± 4.86 µL/min
- urine osmolality [1, 4]: 699±69 mOsm/kg
- urine flow rate [1, 5]: 3.74 ± 0.18 µL/min
- urine osmolality [1, 5]: 1515±96 mOsm/kg
- glomerular filtration rate (GFR) [1]: 1.87 ± 0.15 mL/min
- CLr of furosemide, versus furosemide alone [2, 7]: no difference
- amount of furosemide recovered from urine (Ut), versus furosemide alone [2, 7]: no difference
- mean urine volume [3]: 1524 mL
- serum potassium ([3]; at 0 h): 4.2 mmol/L
- serum potassium ([3]; at 4 hours after the dose): 3.9 mmol/L
- peak urine flow ([3]; healthy men): 9.3 mL/min
